Reference: paper PMC6934184, “Selective DNA-PKcs inhibition extends the therapeutic index of localized radiotherapy and chemotherapy” (The Journal of Clinical Investigation, 2019)

Biological target: T1, PDGFRB (PDGFR beta) (Homo sapiens, UniProt P09619)
T1 construct: purchased Thermo Fisher Scientific (Life Technologies) SelectScreen
Assay: SelectScreen Z'LYTE
Type: biochemical
Summary of the method: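 Percent values come from Thermo SelectScreen profiling of NU5455, combining activity and binding assays. CSF1R was run in Z'LYTE format at Km app ATP, and CAMK1 in Adapta format with ATP listed at 10.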

T1 sequence (P09619 33-1106): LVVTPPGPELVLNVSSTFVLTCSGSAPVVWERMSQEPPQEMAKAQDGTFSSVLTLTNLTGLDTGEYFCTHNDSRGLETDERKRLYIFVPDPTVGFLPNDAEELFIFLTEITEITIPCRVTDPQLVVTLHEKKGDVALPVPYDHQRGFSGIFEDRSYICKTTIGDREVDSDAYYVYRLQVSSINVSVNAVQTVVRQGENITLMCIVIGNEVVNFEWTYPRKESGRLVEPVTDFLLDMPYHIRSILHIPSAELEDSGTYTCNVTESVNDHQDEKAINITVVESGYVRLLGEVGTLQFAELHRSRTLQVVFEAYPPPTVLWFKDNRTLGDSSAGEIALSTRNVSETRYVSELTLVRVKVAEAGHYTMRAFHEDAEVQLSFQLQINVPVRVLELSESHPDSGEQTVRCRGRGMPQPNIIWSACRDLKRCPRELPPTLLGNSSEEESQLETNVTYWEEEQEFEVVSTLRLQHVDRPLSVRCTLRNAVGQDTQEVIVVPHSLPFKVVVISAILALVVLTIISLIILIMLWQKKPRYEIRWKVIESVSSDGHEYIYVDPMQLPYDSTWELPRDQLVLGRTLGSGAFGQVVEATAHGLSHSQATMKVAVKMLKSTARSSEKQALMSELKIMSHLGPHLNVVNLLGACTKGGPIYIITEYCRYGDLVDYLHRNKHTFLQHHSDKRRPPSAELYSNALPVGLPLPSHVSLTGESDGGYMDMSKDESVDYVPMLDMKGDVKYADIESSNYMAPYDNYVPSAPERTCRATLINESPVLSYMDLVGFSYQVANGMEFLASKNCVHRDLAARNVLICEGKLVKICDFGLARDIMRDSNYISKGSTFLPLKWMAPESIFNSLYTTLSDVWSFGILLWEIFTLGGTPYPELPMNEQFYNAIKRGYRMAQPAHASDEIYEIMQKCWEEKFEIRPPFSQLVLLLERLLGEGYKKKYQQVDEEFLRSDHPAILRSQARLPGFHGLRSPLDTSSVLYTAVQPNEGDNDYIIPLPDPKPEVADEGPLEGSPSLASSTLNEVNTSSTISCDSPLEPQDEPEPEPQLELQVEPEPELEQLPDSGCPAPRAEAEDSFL

`CN(C(=O)CN1CCOCC1)c1ccc2sc3c(-c4cccc5c(=O)cc(N6CC7CCC(C6)O7)oc45)cccc3c2c1` [NU5455] was tested, and the inhibition at 1 µM was 11%.
